Measured values from patent publication US20230035422A1, “METHODS FOR TREATING DISEASES BY TARGETING ONCOGENIC LIPIDS” (THE TRUSTEES OF COLUMBIA UNIVERSITY IN THE CITY OF NEW YORK, priority 2020, published 2023).

How the values were obtained:
[1] = system: breast cancer cell lines (high-ADCK3 vs low-ADCK3); test: Breast cancer cell line panel viability with ferroptosis inducers (CellTiter-Glo); format: cell-based; conditions: 2-fold dilution series, 72 hours
Method: Breast cancer cell lines were treated with ferroptosis inducers FIN56 (FIG. 2D) or RSL3 (FIG. 2E) in 2-fold dilution series for 72 hours. Cell viability was measured with CellTiter-Glo®. Ferroptosis-sensitive breast cancer cells are categorized as ‘high-ADCK3’ expressing (orange), while cells that are less sensitive to ferroptosis induction were the ones with ‘low-ADCK3’ (green).
A panel of 10 breast cancer cell lines was selected form the Broad Institute Cancer Cell Line Encyclopedia database (CCLE; https://portals.broadinsitute.org/ccle),based on their ADCK3 copy number and mRNA expression levels, to have a good representation of ADCK3-amplified cells (termed here as ‘high-ADCK3’), as well as a control group expressing normal levels of ADCK3 (termed here as ‘low-ADCK3’; FIG. 2A). To confirm a correlation between high ADCK3 gene/transcript expression and protein expression, ADCK3 levels were measured by western blot (FIG. 2B). Cells were divided into high-ADCK3 (orange in FIGS. 2A-2E) and low-ADCK3 (green in FIGS. 2A-2E) according to the protein expression level. […] High ADCK3 protein levels correlated with high CoQ10 abundance, measured by LC-MS (FIG. 2C). […]

[2] = system: SKBR3 cells overexpressing ADCK3-FLAG; test: Ferroptosis induction in SKBR3 cells overexpressing ADCK3-FLAG (CellTiter-Glo); format: cell-based; conditions: RSL3 10 or 20 nM, FIN56 78 or 156 nM, 48 h
Method: Viability was measured with CellTiter-Glo®.
ADCK3-FLAG was stably overexpressed in SKBR3 cells through retroviral infection. First, proper localization of the overexpressed protein to the mitochondria was validated by fluorescent microscopy. Similarly to the localization pattern of endogenous ADCK3 to the mitochondria, overexpressed ADCK3-FLAG co-localized with a MitoTracker fluorescent probe (FIG. 5A).

[3] = system: ADCK3 knockdown/knockout SKBR3 cells; test: Ferroptosis induction in ADCK3 knockdown/knockout SKBR3 cells (CellTiter-Glo); format: cell-based; conditions: for rescue of RSL3-induced death in siRNA ADCK3 knockdown cells: SKBR3, siRNA ADCK3, RSL3 48 h
Method: At 48 h after transfection, cells were treated with RSL3 in 2-fold dilution series for 48 h, in combination with ferrostatin-1 or idebenone. Viability was measured with CellTiter-Glo®. […] Stable CRISPR cells were treated with FIN56 in 2-fold dilution series in combination with ferrostatin-1, for 48 h. Viability was measured with CellTiter-Glo®. […] (grey) cells were treated with RSL3 or FIN56 in 2-fold dilution series in combination with 2 μM ferrostatin-1 for 48 h. Viability was measured with CellTiter-Glo®.

ADCK3 [4] = biological target: ADCK3 (Homo sapiens, UniProt Q8NI60); conditions: reported, Asquith et al. 2019; cited from earlier work
Chain of ADCK3 (Homo sapiens, UniProt Q8NI60) (Q8NI60 163-647): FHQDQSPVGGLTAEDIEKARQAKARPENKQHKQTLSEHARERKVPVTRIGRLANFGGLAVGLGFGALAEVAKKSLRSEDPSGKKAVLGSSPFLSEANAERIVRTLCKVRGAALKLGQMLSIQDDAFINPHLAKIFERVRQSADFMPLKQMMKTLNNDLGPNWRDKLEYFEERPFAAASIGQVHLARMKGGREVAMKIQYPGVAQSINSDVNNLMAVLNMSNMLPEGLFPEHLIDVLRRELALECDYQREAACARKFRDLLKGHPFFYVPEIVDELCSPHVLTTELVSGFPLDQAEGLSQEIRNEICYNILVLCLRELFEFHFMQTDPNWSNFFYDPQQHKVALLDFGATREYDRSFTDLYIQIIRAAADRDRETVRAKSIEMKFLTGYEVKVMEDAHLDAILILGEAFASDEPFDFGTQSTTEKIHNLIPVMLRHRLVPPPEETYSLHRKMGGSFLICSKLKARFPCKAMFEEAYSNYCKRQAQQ

SKBR3 cells [5] = test: Cellular lipid-ROS by C11-BODIPY flow cytometry; format: cell-based
Excerpt: (§1) Thus, it was concluded that SGC-GAK-1 induces ferroptosis in ADCK3-amplified cells, perhaps by reducing the levels of ADCK3 and CoQ10.

ADCK3 [6] = test: Western blot of ADCK3 protein levels in SKBR3 cells; format: cell-based; conditions: SKBR3, 50 nM SGC-GAK-1, 48 hours
Method: SKBR3 cells were treated with 50 nM SGC-GAK-1 or vehicle, for 48 h, and analyzed by western blot for ADCK3 and GAPDH levels.
as §1

CoQ10 = CoQ10 abundance in SKBR3 cells by LC/MS; format: cell-based; conditions: SKBR3, 50 nM SGC-GAK-1, 48 hours
Excerpt: CoQ10 abundance in SKBR3 cells treated as in FIG. 6A, measured by LC/MS.
as §1

SKBR3 cells [7] = test: SKBR3 cell death / viability on SGC-GAK-1 treatment; format: cell-based
Excerpt: as §1

[8] = system: triple-negative breast cancer; conditions: cited from earlier work

O=S(=O)(NC1CCCCC1)c1ccc2c(c1)C(=NO)c1cc(S(=O)(=O)NC3CCCCC3)ccc1-2 [FIN56]
sensitivity to ferroptosis induction of cells with amplified ADCK3 expression [1]: distinct higher sensitivity | cytotoxic effect in cells overexpressing ADCK3 compared to control [2]: statistically significant reduction in cytotoxic effect

COC(=O)c1ccc([C@@H]2c3[nH]c4ccccc4c3C[C@@H](C(=O)OC)N2C(=O)CCl)cc1 [RSL3]
sensitivity to ferroptosis induction of cells with amplified ADCK3 expression [1]: distinct higher sensitivity | cytotoxic effect in cells overexpressing ADCK3 compared to control [2]: statistically significant reduction in cytotoxic effect | sensitivity of siRNA ADCK3 knockdown cells to ferroptosis inducer ([3]; SKBR3, siRNA ADCK3 vs non-targeting control, 48 h treatment): increased the sensitivity

COc1cc(Nc2ccnc3ccc(Br)cc23)cc(OC)c1OC [SGC-GAK-1]
inhibitory activity against ADCK3 (ADCK3 [4]): nanomolar inhibitory activity | lipid-ROS (SKBR3 cells [5]; SKBR3, 50 nM SGC-GAK-1, 48 h, C11-BODIPY): increase in lipid-ROS | ADCK3 protein levels (ADCK3 [6]): marked reduction in ADCK3 protein levels | CoQ10 levels (CoQ10): reduced CoQ10 levels | sensitivity of SKBR3 cells to RSL3-mediated ferroptotic death (SKBR3 cells [7]; SGC-GAK-1 combined with RSL3): further potentiated SKBR3 cells to RSL3-mediated ferroptotic death | cell death induced by SGC-GAK-1 alone (SKBR3 cells [7]; SKBR3 cells, with or without ferrostatin-1): induced cell death that was rescued by the ferroptosis inhibitor ferrostatin-1

CCOC(=O)c1ccc(NC2CCCCC2)c(N)c1 [ferrostatin-1]
rescue of SGC-GAK-1-induced increase in cellular lipid-ROS (SKBR3 cells [5]; SKBR3, 2 µM ferrostatin-1): rescued | rescue of SGC-GAK-1-induced ferroptotic death (SKBR3 cells [7]; SKBR3, 1 µM ferrostatin-1): rescued | rescue of death and sensitization in CRISPR/shRNA ADCK3 knockout cells ([3]; SKBR3, RSL3 or FIN56 with ferrostatin-1 (2 µM in shRNA cells)): rescued | rescue of RSL3-induced death in siRNA ADCK3 knockdown cells [3]: rescued

COC1=C(OC)C(=O)C(CCCCCCCCCCO)=C(C)C1=O [idebenone]
rescue of RSL3-induced death in siRNA ADCK3 knockdown cells [3]: rescued

Tecentriq: approved in combination with protein-bound paclitaxel for unresectable triple-negative breast cancer whose tumors express PD-L1
patients who experienced adverse reactions ([8]; in vivo): greater than 20% | median progression-free survival ([8]; with protein-bound paclitaxel, PD-L1 expressing unresectable triple-negative breast cancer): 7.4 months | extension of median progression-free survival ([8]; with protein-bound paclitaxel, from 4.8 to 7.4): 2.6 months
